Data: publication PMC8297771 (PLoS Pathogens, 2021)

System: HIV-1 GFP vector produced from treated 293T cells, transduced into Jurkat cells
Assay: HIV-1 inhibition in producing cells (late stage)
Assay type: cell-based
Details: 60 nM in 293T producing cells; GFP by FACS in Jurkat cells
Description: To test for STP0404’s inhibitory effects during the late stage of HIV-1 life cycle such as the maturation step, we employed the “producing cells” setup. In T75 tissue culture flasks, 293T cells were pre-treated with and without STP0404 (0 and 60 nM) for 2 hrs prior to transfection with pD3-HIV (13 μg) and pVSV-g (6 μg), using 0.3 mg/ml polyethylenimine. After 24 hrs incubation at 37°C, the supernatant was removed and replaced with fresh media with and without STP0404 (0 and 60 nM). 48 hrs later, D3-HIV vector from each treatment group was concentrated from the collected supernatant via ultracentrifugation (22,000 rpm for 2 hrs). Following p24 quantification, using 96-well plates, similar amount of respective D3-HIV vector was used to transduce Jurkat cells in triplicates for 48 hrs. The cells were harvested and fixed with 3.7% formaldehyde before being analyzed for GFP expression using FACS (Miltenyi Biotec, VYB). Separately, the “infecting cells” setup was used to investigate the inhibitory effects of STP0404 against the early stages of HIV-1 life cycle such as the integration and transcription steps. […] All data were analyzed using GraphPad Prism (Version 9). Unpaired t tests were performed to determine the significance of the readings in respective experimental set up relative to the untreated controls. […]

Cc1nc2c(c(C)c(C)n2Cc2cnn(C)c2)c(-c2ccc(Cl)cc2)c1[C@H](OC(C)(C)C)C(=O)O [STP0404]
transduction efficiency, producing cells: significantly reduced transduction efficiency
